According to US20210403435A1, “HERBICIDAL COMPOUNDS” (SYNGENTA CROP PROTECTION AG, priority 2018, published 2021):
Read-outs that look alike come from different tables or passages of the source.

Experiments:
Test in all cases: Post-emergence efficacy, glasshouse, evaluated after 13 days
Type in all cases: in vivo
[1] = system: Chenopodium album (CHEAL); settings: for pest or weed control at 500 g/ha: Chenopodium album, 312 h, read-out: Control of weed species CHEAL (100=total damage to plant; 0=no damage to plant)
Outline: (§1)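 Plants grown 14 days in pots of standard soil in a glasshouse (24/16 °C day/night, 14 h light, 65% humidity), then sprayed post-emergence with compound formulated in acetone and IF50 and diluted in 0.25% or 1% Empicol ESC70 + 1% ammonium sulphate. Damage scored after 13 days, 0–100 (100 = total damage).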

Eleusine indica (ELEIN) = settings: for pest or weed control at 500 g/ha: Eleusine indica, 312 h, read-out: Control of weed species ELEIN (100=total damage to plant; 0=no damage to plant)
Outline: as §1

[2] = system: Digitaria sanguinalis (DIGSA); settings: for pest or weed control at 500 g/ha: Digitaria sanguinalis, 312 h, read-out: Control of weed species DIGSA (100=total damage to plant; 0=no damage to plant)
Outline: as §1

[3] = system: Euphorbia heterophylla (EPHHL); settings: for pest or weed control at 500 g/ha: Euphorbia heterophylla, 312 h, read-out: Control of weed species EPHHL (100=total damage to plant; 0=no damage to plant)
Outline: as §1

Lolium perenne (LOLPE) = settings: for pest or weed control at 500 g/ha: Lolium perenne, 312 h, read-out: Control of weed species LOLPE (100=total damage to plant; 0=no damage to plant)
Outline: as §1

[4] = system: Amaranthus palmeri (AMAPA); settings: for pest or weed control at 500 g/ha: Amaranthus palmeri, 312 h, read-out: Control of weed species AMAPA (100=total damage to plant; 0=no damage to plant)
Outline: as §1

[5] = system: Echinochloa crus-galli (ECHCG); settings: for pest or weed control at 500 g/ha: Echinochloa crus-galli, 312 h, read-out: Control of weed species ECHCG (100=total damage to plant; 0=no damage to plant)
Outline: as §1

[6] = system: Ipomoea hederacea (IPOHE); settings: for pest or weed control at 500 g/ha: Ipomoea hederacea, 312 h, read-out: Control of weed species IPOHE (100=total damage to plant; 0=no damage to plant)
Outline: as §1

Setaria faberi (SETFA) = settings: for pest or weed control at 500 g/ha: Setaria faberi, 312 h, read-out: Control of weed species SETFA (100=total damage to plant; 0=no damage to plant)
Outline: as §1

[7] = post-emergence application, 500 g/Ha, evaluated after 13 days

SMILES	pest or weed control at 500 g/ha [1, 7] [%]	pest or weed control at 500 g/ha (Eleusine indica (ELEIN); [7]) [%]	pest or weed control at 500 g/ha [2, 7] [%]	pest or weed control at 500 g/ha [3, 7] [%]	pest or weed control at 500 g/ha (Lolium perenne (LOLPE); [7]) [%]	pest or weed control at 500 g/ha [4, 7] [%]	pest or weed control at 500 g/ha [5, 7] [%]	pest or weed control at 500 g/ha [6, 7] [%]	pest or weed control at 500 g/ha (Setaria faberi (SETFA); [7]) [%]	also measured
CCNC(=O)c1cc[n+](CCCOS(=O)(=O)[O-])nc1 [Compound A83]										Control of weed species CHEAL (100=total damage to plant; 0=no damage to plant) [1, 7]: 90; Control of weed species ELEIN (100=total damage to plant; 0=no damage to plant) (Eleusine indica (ELEIN); [7]): 90; Control of weed species DIGSA (100=total damage to plant; 0=no damage to plant) [2, 7]: 90; Control of weed species EPHHL (100=total damage to plant; 0=no damage to plant) [3, 7]: 90; Control of weed species LOLPE (100=total damage to plant; 0=no damage to plant) (Lolium perenne (LOLPE); [7]): 80; Control of weed species AMAPA (100=total damage to plant; 0=no damage to plant) [4, 7]: 90; Control of weed species ECHCG (100=total damage to plant; 0=no damage to plant) [5, 7]: 90; Control of weed species IPOHE (100=total damage to plant; 0=no damage to plant) [6, 7]: 80; Control of weed species SETFA (100=total damage to plant; 0=no damage to plant) (Setaria faberi (SETFA); [7]): 60
O=C(Nc1ccccc1O)c1cc[n+](CCS(=O)(=O)[O-])nc1 [Compound A84, 2-[4-[(2-hydroxyphenyl)carbamoyl]pyridazin-1-ium-1-yl]ethanesulfonate]	30	10	50	30	0	0	20	10	20	
CC(C#N)NC(=O)c1cc[n+](CCC(=O)O)nc1 (stereo not drawn) [Compound A85]	90	100	100	100	60	100	90	30	90	
CC#CCNC(=O)c1cc[n+](CCC(=O)O)nc1 [Compound A86]	90	90	100	100	60	100	100	20	100	
CCNC(=O)c1cc[n+](CCP(=O)(OCC)OCC)nc1 [Compound A87]										pest or weed control at 500 g/ha ([1]; post-emergence): 100%; pest or weed control at 500 g/ha (Eleusine indica (ELEIN); post-emergence): 20%; pest or weed control at 500 g/ha ([2]; post-emergence): 10%; pest or weed control at 500 g/ha ([3]; post-emergence): 40%; pest or weed control at 500 g/ha (Lolium perenne (LOLPE); post-emergence): 10%; pest or weed control at 500 g/ha ([4]; post-emergence): 100%; pest or weed control at 500 g/ha ([5]; post-emergence): 0%; pest or weed control at 500 g/ha ([6]; post-emergence): 30%; pest or weed control at 500 g/ha (Setaria faberi (SETFA); post-emergence): 60%
CCNC(=O)c1cc[n+](CC(C)(C)C(=O)O)nc1 [Compound A88]	100	100	80	90	60	100	90	90	100	
CCNC(=O)c1cc[n+](CC(=O)OC)nc1 [Compound A89]	0	0	0	20	0	0	0	20	0	
N#CCNC(=O)c1cc[n+](CCC(=O)O)nc1 [Compound A90]	90	100	100	100	70	100	100	80	100	
CCNC(=O)c1cc[n+](CC[C@H](N)C(=O)O)nc1 [Compound A91, [(1S)-1-carboxy-3-[4-(ethylcarbamoyl)pyridazin-1-ium-1-yl]propyl]ammonium dichloride]	50	70	60	20	60	70	0	30	70	
CC1(NC(=O)c2cc[n+](CCC(=O)O)nc2)CC1 [Compound A92]	100	90	100	100	90	100	80	50	100	
O=C(O)CC[n+]1ccc(C(=O)NC2(C(F)(F)F)CC2)cn1 [Compound A94]	100	100	90	90	80	100	80	60	90	
O=C(O)CC[n+]1ccc(C(=O)NC2CC2(F)F)cn1 (stereo not drawn) [Compound A95]	100	100	100	100	60	100	80	60	100	
N#Cc1ccc(CNC(=O)c2cc[n+](CCC(=O)O)nc2)cc1 [Compound A96]	80	50	20	100	20	100	20	40	30	
O=C(O)CC[n+]1ccc(C(=O)NCC(F)(F)C(F)(F)F)cn1 [Compound A97]	100	60	90	90	90	100	60	30	90	
O=C(O)CC[n+]1ccc(C(=O)NCc2ccc(C(F)(F)F)cc2)cn1 [Compound A98]	70	90	60	100	0	90	50	20	30	
CC1(NC(=O)c2cc[n+](CCNS(=O)(=O)[O-])nc2)CC1 [Compound A99]	40	70	100	40	40	50	60	30	90	
CC(C)(CO)NC(=O)c1cc[n+](CCC(=O)O)nc1 [Compound A100]	20	40	70	30	50	60	60	20	90	
